Assay results as given in patent US4666907A, “Phenothiazine and derivatives and analogs and use as leukotriene biosynthesis inhibitors” (Merck Frosst Canada, Inc., priority 1986, dated 1987).

Columns and labels:
[1] = tested on: asthmatic rats; experiment: Asthmatic rat assay (duration of dyspnoea after egg albumin aerosol); assay type: in vivo; conditions: po; for inhibition in vivo at 3 mg/kg: 3 mg/kg p.o.
Description: Rats were obtained from an inbred line of asthmatic rats. Both female and male rats from 200 to 300 g were used.
Egg albumin (EA), grade V, crystallized and lyophilized, was obtained from Sigma Chemical Co., St. Louis. Bordetella pertussis vaccine, containing 30×10^9 killed bacteria per ml was obtained from the Institut Armand-Frappier, Laval des Rapides, Quebec. Aluminum hydroxide was obtained from the Regeis Chemical Company, Chicago.
The challenge and subsequent respiratory recordings were carried out in a clear plastic box with internal dimensions 10×6×4 inches. The top of the box was removable; in use, it was held firmly in place by four clamps and an airtight seal was maintained by a soft rubber gasket. […] A Fleisch No. 0000 pneumotachograph was inserted into one end of the box and coupled to a Grass volumetric pressure transducer (PT5-A) which was then connected to a Beckman Type R Dynograph through appropriate couplers. While aerosilizing the antigen, the outlets were open and the pneumotachograph was isolated from the chamber. The outlets were closed and the pneumotachograph and the chamber were connected during the recording or the respiratory patterns. For challenge, 2 ml of a 3% solution of antigen in saline was placed into each nebulizer and the aerosol was generated with air from a small Potter diaphragm pump operating at 10 psi and a flow of 8 liters/minutes.
Rats were sensitized by injection (s.c.) 1 ml of a suspension containing 1 mg EA and 200 mg aluminum hydroxide in saline. Simultaneously, they received an injection (i.p.) of 0.5 ml of B. pertussis vaccine. They were used between days 14 and 18 postsensitization. In order to eliminate the serotonin component of the response, rats were pretreated intravenously 5 minutes prior to aerosol challenge with […] methylserzide. Rats were then exposed to an aerosol of 3% EA in saline for exactly 1 minute, then their respiratory profiles were recorded for a further 25-30 minutes. The duration of continuous dyspnoea was measured from the respiratory recordings.
Compounds were generally administered either intraperitoneally 1 hour prior to challenge or orally 11/2 hours prior to challenge. They were either dissolved in dimethylsulfoxide or suspended in 0.1% methocel and 0.5% Tween 80. The volume injected has 2 ml kg^-1 (intraperitoneally) or 10 ml kg^-1 (orally). Prior to oral treatment rats were starved overnight. Their activity was determined in terms of their ability to decrease the duration of symptoms of dyspnoea in comparison with a group of vehicle-treated controls. Usually, a compound was evaluated at a series of doses and an ED50 was determined. This was defined as the dose (mg/kg) which would inhibit the duration of symptoms by 50%.

[2] = tested on: PAF-induced hyperalgesia in Sprague-Dawley rats; experiment: PAF-induced hyperalgesia assay (vocalization threshold, rat paw); assay type: in vivo; conditions: po, read-out: PAF Induced Hyperalgesia Assay % inhibition; for responders at 1 mg/kg: 1 mg/kg p.o.; for responders at 3 mg/kg: 3 mg/kg p.o.
Experimental: Female Sprague-Dawley rats, 35-40 g were fasted overnight. Platelet activating factor, PAF, (L-lecithin B-acetyl O-alkyl) 1 μg/0.1 ml was given by subplantar injection in the rat paw. The compounds to be evaluated were homogenized in aqueous Vehicle (0.9% benzyl alcohol, 0.5% Tween 80 and 0.4% methylcellulose) and administered orally in a volume of 0.1 ml, 30 minutes prior to PAF.
Animals were tested 1, 2, 3 and 4 hours after PAF administration. The vocalization threshold, defined as the pressure (mm Hg) needed to evoke a squeak response, was recorded for both the injected and contralateral paw. No animal was subjected to pressure greater than 60 mm Hg. Hyperalgesia is defined as a decrease in vocalization threshold as compared to a normal paw. Percent inhibition of hyperalgesia was calculated as the proportion of animals with vocalization thresholds greater than 200% of controls.

Row | Compound | inhibition in vivo at 3 mg/kg [1] | responders at 1 mg/kg [2] | responders at 3 mg/kg [2] | also measured
1 | COc1ccc2c(c1)Sc1cc(C)ccc1N2C | 58% | 30% |  | 
2 | COc1ccc2c(c1)Sc1c(cc(OC)c(O)c1Br)N2C(=O)OC(C)OC(C)=O (stereo not drawn) |  |  | 60% | inhibition in vivo at 5 mg/kg ([1]; 5.0 mg/kg p.o.): 42%
3 | c1ccc2c(c1)Nc1ccccc1S2 [drawing 61] |  |  | 50% | inhibition in vivo at 0.5 mg/kg ([1]; 0.5 mg/kg p.o.): 53%
4 | COc1ccc2c(c1Cl)Sc1ccccc1N2C [drawing 64] |  |  |  | inhibition in vivo at 0.2 mg/kg ([1]; 0.2 mg/kg p.o.): 50%; responders at 0.016 mg/kg ([2]; 0.016 mg/kg p.o.): 50%
5 | CC(C)C(=O)Oc1ccc2c(c1Cl)Sc1ccccc1N2C [drawing 66] | 35% | 70% |  | 
6 | COc1ccc2c(c1Cl)Sc1ccccc1N2C(C)=O [drawing 70] |  |  |  | inhibition in vivo at 1.5 mg/kg ([1]; 1.5 mg/kg p.o.): 59%; responders at 0.01 mg/kg ([2]; 0.01 mg/kg p.o.): 50%
